From patent publication US12251449B2, “Synthetic multidomain peptide biomaterials that inhibit inducible nitric oxide synthase” (William Marsh Rice University, priority 2019, dated 2025)
Entries after “also recorded” stand apart in the source; their conditions may differ. *1 amine or outer side, *2 acyl side, *3 side chain or, on linkers, in order; H or OH if unused. Where a SMILES comes first, the peptide text is derived from it. [ ]: non-standard residue; d: D form. X1 = CC(=N)NCCCC[C@H](N[*:1])C(=O)[*:2]

How the values were obtained:
[1] = Live-dead viability of RAW 264.7 cells on MDP hydrogels; format: cell-based, mouse; conditions: mouse, RAW 264.7 cells cultured on peptide hydrogel (2-D culture); RAW macrophages on 1 wt. % hydrogel, after three days; read-out: cell survival
Protocol: (§1) Cell culture. For in vitro experiments, mouse RAW 264.7 cells (ATCC TIB-71) were grown in DMEM media supplemented with 10% Heat-Inactivated Fetal Bovine Serum (HI-FBS), L-glutamine, sodium pyruvate, and 1% penicillin-streptomycin. Cells were cultured at 37° C. with 5% CO2 and subcultured using scraping.
(§2) For 2-D culture live-dead viability studies, peptide hydrogels were pipetted into 0.4 cm^2 wells of Lab-Tek 16 well glass chamber slides (Thermo Fischer, Rochester, NY). Gels were pipetted to produce 70 μL pucks with a thickness of 1.75 mm. The gels were carefully pipetted into the bottom of each well and tapped before shear recovery to create flat gel profiles. After pipetting, the samples were allowed to shear recover for 5-10 min before adding 200 μL cell media and 10,000 RAW 264.7 cells. For each experiment time point (days 1 and 3) separate slides with duplicate gels were created. The cell media was changed every 2 days, taking care to not disturb or dislodge the gel material.
(§3) At each desired time point the following procedure was used to stain the cells for live-dead analysis. Live-dead staining solution was prepared in DPBS (Thermo Fisher Scientific, Rockford, IL) with 2 μM Calcein AM (Life Technologies), 4 μM Ethidium homodimer (Life Technologies), and 5 μg/mL Hoechst 33342 (BD Biosciences, San Jose, CA). Cell media was removed from the top of the hydrogel samples, which were then washed with PBS. Samples were then stained with 100 μL of prepared solution by incubating at 37° C. with 5% CO2 for 60 min while protected from light. After staining, the gels were removed from the glass chamber slides and placed in PBS before immediately imaging by confocal. Gels were analyzed by z-stack imaging using a Nikon A1 Confocal Microscope with a 40× water objective (405 nm blue channel laser, 488 nm green channel laser, 561 nm red channel laser). Image processing was done using NIS Elements, and Imaris Cell Counting software was used to quantify live-dead percentages.

[2] = tested on: RAW 264.7 cells; assay: as above; format: cell-based, mouse; conditions: RAW macrophages on 1 wt. % hydrogel, one to three days
Protocol: as §1, §2, §3

[3] = tested on: VEGF; assay: Serum VEGF ELISA in mice bearing B16-F0 melanoma tumors; format: in vivo; conditions: 5 days after single 100 μL intratumoral injection
Protocol: Evaluation of in vivo VEGF reduction using murine B16-F0 melanoma tumor model. C57BL/6J male mice were purchased from The Jackson Laboratory. […] All experiments were performed with approval of IACUC at Baylor College of Medicine (BCM) and followed established protocols. B16-F0 melanoma cell line was purchased from American Type Culture Collection (ATCC) and maintained according to manufacturer instructions (DMEM high-glucose with 10% fetal bovine serum and 1% penicillin/streptomycin). C57BL/6J mice were injected subcutaneously (s.c.) with 3×10^5 B16-F0 cells in a single flank. Once tumors became palpable (day 7 post-inoculation) mice were injected intratumorally (i.t.) with either vehicle buffer control Hank's Balanced Salt Solution (HBSS), free L-NIL dissolved in HBSS at 20 mM, K2-MDP hydrogel at 1 wt. % (5.6 mM peptide), or L-NIL-MDP hydrogel at 1 wt. % (5.2 mM peptide, or approximately 20 mM L-NIL functional groups). All injections were done using 100 μL total injection volume.
Mice were euthanized 5 days following i.t. injections and tumor/blood were collected. […] VEGF quantification of undiluted serum was performed using a mouse VEGF Quantikine ELISA kit (R&D Systems, Minneapolis, MN) following manufacturer's instructions. […] Statistical differences were evaluated using Tukey's multiple comparisons test. […]

[4] = tested on: MOC1 cells; assay: Live-dead viability of MOC1 cells on L-NIL-MDP hydrogel; format: cell-based, mouse; conditions: cultured on hydrogel over 7 days
Protocol: Cell culture. The murine oral cancer cell line, MOC1 was provided by Dr. Ravindra Uppaluri (Dana-Farber Cancer Institute, Harvard University, Boston, MA) and maintained as previously described (Judd et al., 2012). For in vitro experiments, mouse MOC1 cells were cultured at 37° C. with 5% CO2 in media routinely used for maintaining this cell line (Judd et al., 2012). For live-dead viability studies done using 2-D culture, peptide hydrogel 70 μL in volume (thickness approximately 1.75 mm) were pipetted into the wells of Lab-Tek 16 well chamber slides (Thermo Fisher, Rochester, NY). The gels were pipetted carefully into the bottom of the wells, and the plates were gently tapped down onto the bench top before shear recovery to flatten the pipetted gels and facilitate uniform spreading of the material. After pipetting, time was allowed for the samples to shear recover (5-10 min) before the addition of 200 μL cell media and 5,000 MOC1 cells. Each time point (days 1, 3, 7) had separate slides prepared with duplicate gels. Cell media was replaced every 2 days, carefully pipetting to avoid dislodging the gel material. […] Image processing was done with NIS Elements (Nikon Instruments, Melville, NY), and Imaris Cell Counting software (Bitplane, Concord, MA) was used to quantify live-dead percentages.

[5] = prior studies (Leach et al., 2019); cited from earlier work
[6] = tested on: MOC1 tumors; assay: MOC orthotopic murine model of oral cancer (Example 9); conditions: established 4-5 mm MOC1 tumors, single 30 μl intratumoral injection
Protocol: MOC orthotopic murine model of oral cancer. MOC1 tumors were established by injecting 2×10^6 cells (70%:30% cells: Matrigel®Matrix) into the maxillary vestibule of the left oral cavity in C57BL/6J mice. […] Tumor growth was monitored by tumor size measurements (in diameter) taken at least two times per week using digital calipers to measure the longest dimension (single dimension). Data was then analyzed for Kaplan-Meier survival and tumor growth curves. […] Excessive tumor burden, defined as tumor diameter reaching 12 mm, tumor ulceration, or a weight loss of greater than 20% were factors that were considered for all endpoints in tumor growth and survival data.
Statistical methods. Statistical analyses were performed using Prism 7.0 (GraphPad, San Diego, CA). Statistical analyses for Kaplan-Meier survival curves were performed using the Log-rank/Mantel-Cox test. Statistical significance for tumor growth curves was determined by a two-way ANOVA test followed by selected comparison using Tukey's multiple comparison tests with multiple comparison correction. All p values were two-sided and p values less than 0.05 were considered significant.

Question: For `CC(=N)NCCCC[C@H](NC(=O)[C@H](CCCCNC(C)=N)NC(=O)[C@H](CC(C)C)NC(=O)[C@H](CO)NC(=O)[C@H](CC(C)C)NC(=O)[C@H](CO)NC(=O)[C@H](CC(C)C)NC(=O)[C@H](CO)NC(=O)[C@H](CC(C)C)NC(=O)[C@H](CO)NC(=O)[C@H](CC(C)C)NC(=O)[C@H](CO)NC(=O)[C@H](CC(C)C)NC(=O)[C@H](CO)NC(=O)[C@H](CCCCNC(C)=N)NC(=O)[C@H](CCCCNC(C)=N)NC(C)=O)C(N)=O` [L-NIL-MDP] (Ac-[X1][X1]SLSLSLSLSLSL[X1][X1]-NH2), which viability at 72 h, 1 wt. % [1] is on record?
Answer: Its viability at 72 h, 1 wt. % is ~95%.

Question: What about the “cell attachment, survival and proliferation (in words)” value [2] of the same compound?
Answer: Its value is “highest degrees of cell attachment and proliferation”.

Question: And the “reduction of systemic VEGF levels (in words)” value [3]?
Answer: Its value is “significantly reduced systemic VEGF levels; also recorded: Significant VEGF reduction”.

Question: And the “viability of MOC1 cells (in words)” value [4]?
Answer: Its value is “high viability”.

Question: What about the “hydrogel observable post injection” value [5] of the same compound?
Answer: Its value is 21 days.

Question: What about the median survival [6] of the same compound?
Answer: Its median survival is 44 days.
